“Also recorded” adds a separate entry of the source. Counter-ions that a name gives are not always drawn.
Legend:
[1] = Caco-2 permeability studies; type: in vitro ADME; settings: human, 1 h incubation
Protocol: Caco-2 cells (HTB-37) were cultured in T75 flasks using DMEM supplemented with 10% FBS, 1% glutamine, penicillin, and streptomycin at 37 °C and 5% CO2. Cells were passaged at 80–90% confluency and seeded into Millipore 96-well plates (25,000 cells/well) to form monolayers, with media changed every 2–3 days for 21 days until 100% confluency. Permeability studies involved adding 10 μM compound 6 to the apical (A) or basolateral (B) side and measuring permeation across the monolayer. Lucifer yellow dye (100 μM) was used in the A-side buffer as a control. Incubation lasted 1 h, and permeability was assessed using ranitidine/colchicine (low permeability) and labetalol/propranolol (high permeability) as controls. Samples were collected, quenched with methanol, centrifuged, and analyzed by HPLC-MS/MS to determine peak area ratios.
Data was expressed as [drawing 1] here VR is the volume of the receiver chamber. CR,end is the concentration of the test compound in the receiver chamber at the final time point, Δt denotes the incubation time, and A is the surface area of the cell monolayer. CD,mid is the average midpoint concentration of the test compound on the donor side, calculated as the mean of the donor concentrations at 0 min and at the end time point. […] Test compound concentrations were determined based on their peak areas.

[2] = target: T1, KOR (Mus musculus, UniProt P33534); test: KOR [35S]GTPγS functional assay; type: biochemical
T1 construct: expressed in transfected cells; host or cells: CHO (KOR-CHO), membrane preparation
Protocol: The [^35S]GTPγS functional assay was used to assess the efficacy of compounds at the MOR, KOR, and DOR. In this assay, 10 μg of MOR-CHO/KOR-CHO/DOR-CHO membrane protein was incubated in 500 μL of TME with 100 mM NaCl, 20 μM GDP, 0.1 nM [^35S]GTPγS, and varying concentrations of the compound for 1.5 h in a 30 °C water bath. Protein concentration was adjusted using the Bradford protein assay. […] After incubation, bound radioactivity was separated by filtration through GF/B glass fiber filters and measured by liquid scintillation counting. All assays were performed in duplicate and repeated at least three times. Net stimulated [35S]GTPγS binding was calculated as agonist-stimulated minus basal binding.

[3] = target: T2, MOR (Mus musculus, UniProt P42866); test: MOR calcium flux assay in Gαqi5-transfected mMOR-CHO cells; type: cell-based
T2 construct: expressed in transfected cells; host or cells: CHO (MOR-CHO), membrane preparation

[4] = target: T3, CYP2C9 (Homo sapiens, UniProt P11712); test: Cytochrome P450 inhibition assay, CYP2C9; type: in vitro ADME
T3 construct: Eurofins Panlabs, Inc. (contract laboratory)
Protocol: (§1) The ADMET assessment including the hERG inhibitory activity, plasma protein binding, in vitro metabolic stability profile, CYP inhibitory effect and mutagenic evaluation were conducted by Eurofins Panlabs, Inc.[21],[61],[69]−[71]

[5] = test system: Swiss Webster mice; test: Warm-water tail immersion assay, antagonism of morphine-induced antinociception
[6] = target: T4, CYP2A6 (Homo sapiens, UniProt P11509); test: Cytochrome P450 inhibition assay, CYP2A6; type: in vitro ADME
T4 construct: Eurofins Panlabs, Inc. (contract laboratory)
T4 sequence (P11509 1-494): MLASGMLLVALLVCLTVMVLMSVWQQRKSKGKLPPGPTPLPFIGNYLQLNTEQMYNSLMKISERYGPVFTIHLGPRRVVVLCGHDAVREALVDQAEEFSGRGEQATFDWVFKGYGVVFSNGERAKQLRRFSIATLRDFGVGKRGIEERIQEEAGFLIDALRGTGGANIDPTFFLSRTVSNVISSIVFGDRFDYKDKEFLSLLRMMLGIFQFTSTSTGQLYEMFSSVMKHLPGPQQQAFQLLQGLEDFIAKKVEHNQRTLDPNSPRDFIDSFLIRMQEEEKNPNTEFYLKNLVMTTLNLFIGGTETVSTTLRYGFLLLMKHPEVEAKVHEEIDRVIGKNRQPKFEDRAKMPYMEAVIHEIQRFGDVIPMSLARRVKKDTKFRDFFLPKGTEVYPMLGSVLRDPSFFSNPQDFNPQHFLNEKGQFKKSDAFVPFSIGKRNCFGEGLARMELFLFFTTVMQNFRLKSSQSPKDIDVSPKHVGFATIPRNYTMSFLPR
Protocol: as §1

[7] = target: T5, μ opioid receptor (MOR) (Mus musculus, UniProt P42866); test: Competitive radioligand binding assay, MOR
T5 construct: expressed in transfected cells; host or cells: CHO (mMOR-CHO), membrane preparation
Protocol: (§2) The competition binding assay was performed using monoclonal mouse opioid receptors expressed in CHO cell lines (monoclonal human δ opioid receptor was used for the DOR assay).
(§3) The bound radioligand was separated using a Brandel harvester. Specific binding to the MOR, KOR, and DOR was calculated by subtracting the binding observed in the presence of 5 μM naltrexone, U50488, and SNC80, respectively, from the binding in their absence. Relative affinity values (IC50) were determined by fitting displacement binding inhibition data to a nonlinear regression model using GraphPad Prism 8.0 (GraphPad Software, San Diego, CA). The % inhibition was calculated using the formula: % inhibition = 100% - [(binding with the tested compound - nonspecific binding)/specific binding] × 100%. The IC50 values were converted to Ki values using the Cheng-Prusoff equation: Ki = IC50/ [1 + ([L*]/KD)], where [L*] is the concentration of the radioligand and KD is the KD of the radioligand.[68]

[8] = target: T6, κ opioid receptor (KOR) (Mus musculus, UniProt P33534); test: Competitive radioligand binding assay, KOR
T6 construct: expressed in transfected cells; host or cells: CHO (mKOR-CHO), membrane preparation
Protocol: as §2, §3

[9] = Plasma protein binding, Sprague-Dawley rat; type: in vitro ADME
Protocol: as §1

O=C(N[C@H]1CC[C@@]2(O)[C@H]3Cc4ccc(O)c5c4[C@@]2(CCN3CC2CC2)[C@H]1O5)c1nccs1 [Compound 6, 17-Cyclopropylmethyl-3,14β-dihydroxy-4,5α-epoxy-6α-(2′-thiazolylcarboxamido)-morphinan hydrochloride] gave a Papp A→B at 1 h, 10 μM [1] of 13.1 ×10⁻⁶ cm/s, a Papp B→A at 1 h, 10 μM [1] of 33.2 ×10⁻⁶ cm/s and an EC50 [2] of 3.83 ± 0.62 nM. For the same molecule, the Emax ([2]; relative to 3 μM U50488H, mean ± SEM, read-out: KOR [35S]GTPγS binding % Emax of U50488H) was 23.5 ± 2.03%, the IC50 [3] was 5.64 ± 0.24 nM and the “Agonistic activity in increasing intracellular calcium, in words” value ([3]; compared to full MOR agonist DAMGO) was “no apparent agonism; also recorded: none of them showed any significant agonistic activity”. The inhibition at 10 µM ([4]; 1.0E-05 M) was 16.3%, the inhibition at 100 nM ([4]; 1.0E-07 M) was 0.6% and the “AD50 (95% CL) for counteracting morphine-induced antinociception” value ([5]; mice, s.c., given 5 min before morphine) was 0.043 (0.007–0.25) mg/kg. For the same molecule, the “Antagonism of morphine's antinociception, in words” value ([5]; single dose of 10 mg/kg s.c. in the presence of morphine (10 mg/kg), n = 6) was “significantly antagonized”, the inhibition at 10 µM ([6]; 1.0E-05 M) was 7.8% and the inhibition at 100 nM ([6]; 1.0E-07 M) was 6.3%. For the same molecule, the Ki [7] was 0.25 ± 0.03 nM, the Ki [8] was 1.3 ± 0.12 nM and the “Selectivity κ/μ” value ([8]; ratio of Ki values) was 5. The fraction unbound [9] was 0.4.

From PMC11651181, “Discovery of 6α-Thiazolylcarboxamidonaltrexamine Derivative (NTZ) as a Potent and Central Nervous System Penetrant Opioid Receptor Modulator with Drug-like Properties for Potential Treatment of Opioid Use Disorder” (ACS Pharmacology & Translational Science, 2024)
